In US9668967B2, “Lipid formulations comprising a thiolated antioxidant” (CAMURUS AB, priority 2008, dated 2017):

Assays:
[1] = Exploratory stability study of glucagon lipid formulations, 25° C./60% RH for 7 days (NP HPLC); format: physicochemical; details: for assayed GLU content as % of initial (time zero) GLU content (FIG. 3): antioxidant 0.3 wt % (BHT 0.1 wt %), compared with antioxidant-free control
Method: To prevent breakdown of glucagon resulting from oxidation of the methionine residue (giving Met(O)27glucagon), an antioxidant may be included in the compositions of the present invention. To establish the most suitable antioxidant, various common and less common antioxidants were tested in the peptide/lipid system of the present invention.
Note that the antioxidant content in the respective formulations, except for the reference formulations (#229 and #234), was 0.3 wt % for tocopherol (α-TOC), acsorbyl palmitate (AscPalm) and mono-thioglycerol (MTG) and 0.1 wt % for butyl hydroxytoluene (BHT). Samples containing MTG were #233 and 235.
In FIG. 3, the assayed GLU content after storage at 25° C./60% RH for 7 days is plotted as the % of initial (time zero) GLU content.
Because the assay is based on a normal phase (NP) HPLC column, degradation products with RR<1 are more hydrophobic compared with GLU whereas more hydrophilic degradation products give RR>1.

[2] = Hydrogen peroxide stress test of buprenorphine lipid formulations (HPLC); format: physicochemical
Method: Lipid formulations of BUP also containing antioxidant were prepared in the following way: First, a liquid lipid stock solution of SPC/GDO/EtOH/antioxidant (or a reference stock solution without antioxidant) in the required proportions were prepared by weighing of all components into glass vials followed by mixing by end-over-end rotation for about 8 h or until completely homogenous liquids were obtained. Thereafter, BUP (powder) was added to achieve a nominal concentration of 7.9 wt % in all cases. The antioxidants were added in an amount corresponding to common previous use in pharmaceutical products.
The following stress test was performed to evaluate the effect of the four different antioxidants (Table 1): Oxidative degradation was induced by adding 20 μL, H2O2 (30%)/mL formulation followed by equilibration of the formulations for 48 hours at RT (dark). Analysis of BUP and any oxidation degradation product (DP) in the formulations was performed by HPLC (reversed phase column) with UV detection at 288 nm.
The protective effect of different MTG concentrations was assessed by performing a stress test according to Example 1. […] The formulations were thereafter analysed by HPLC as described in Example 1 and the relative area % of the main oxidation degradation product (DP) peak (relative retention RR=1.053) was determined.

[3] = storage at 25° C./60% RH for 7 days

| SMILES | assayed GLU content as % of initial (time zero) GLU content (FIG. 3) [1, 3] | protecting BUP from oxidation degradation in the lipid formulation, compared with reference formulation ([2]; H2O2 treated formulations, Table 2) | protective effect of different MTG concentrations on main oxidation DP (FIG. 1) ([2]; MTG 0-1.0 wt % in BUP/SPC/GDO/EtOH=7.9/41.1/41.1/10.0 wt %, H2O2, 48 hours at RT (dark)) | suppressing the oxidative degradation of glucagon ([1]; compared with other lipid soluble antioxidants) | formation of Met(O)27glucagon (degradation products with RR>1, % Total Area, FIG. 4) [1, 3] |
| --- | --- | --- | --- | --- | --- |
| CCCCCCCCCCCCCCCC(=O)OC[C@H](O)[C@H]1OC(=O)C(O)=C1O [AscPalm, acsorbyl palmitate, reference compound] | degrading of glucagon |  |  |  |  |
| OCC(O)CS (stereo not drawn) [MTG, Mono-thioglycerol] | best oxidation protection | clearly superior | significant protective effect | more efficient than other lipid soluble antioxidants | most efficient |
